From patent publication US20110313156A1 (BOEHRINGER INGELHEIM INTERNATIONAL GMBH, priority 2008, published 2011)

Target: T1, His6-PDK1 (aa 52-556) (Homo sapiens, UniProt O15530)
T1 construct: 15 μL His6-PDK1 (aa 52-556) 3.33 ng/well); host or cells: baculovirus-infected insect cells
T1 sequence (O15530 52-556): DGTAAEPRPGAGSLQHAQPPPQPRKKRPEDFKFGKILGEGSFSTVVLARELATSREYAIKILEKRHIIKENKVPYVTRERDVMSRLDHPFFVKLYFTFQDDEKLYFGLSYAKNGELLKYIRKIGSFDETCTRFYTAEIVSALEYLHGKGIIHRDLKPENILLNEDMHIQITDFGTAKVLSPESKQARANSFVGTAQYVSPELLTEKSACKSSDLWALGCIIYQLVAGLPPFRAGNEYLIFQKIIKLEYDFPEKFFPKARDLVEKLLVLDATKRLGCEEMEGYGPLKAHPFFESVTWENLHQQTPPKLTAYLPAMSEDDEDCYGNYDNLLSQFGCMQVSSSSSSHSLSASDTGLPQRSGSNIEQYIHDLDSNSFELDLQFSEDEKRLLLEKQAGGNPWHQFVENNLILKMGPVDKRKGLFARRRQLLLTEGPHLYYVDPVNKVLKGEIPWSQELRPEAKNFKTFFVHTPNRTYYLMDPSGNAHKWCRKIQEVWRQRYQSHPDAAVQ
Experiment: PDK1 kinase assay III (with Tween 20)
Type: biochemical
Details: compound at 10 μM; PDK1 kinase assay III (values without asterisk); read-out: % CTL (residual activity of the enzyme relative to DMSO control)
Outline: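 Started with ATP, incubated 90 min at ambient temperature, then stopped with phosphoric acid. Asterisked values come from assay II (24 h or 5 min incubation).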

Row | SMILES | remaining activity at 10 µM [%]
1 | O=C1Nc2cc(/C=C/CNC(=O)c3cc(Cl)nn(Cc4ccc(F)c(F)c4)c3=O)ccc2/C1=C/c1ccc[nH]1 [I-34, 6-chloro-2-(3,4-difluorobenzyl)-3-oxo-N-{(2E)-3-[(3Z)-2-oxo-3-(1H-pyrrol-2-ylmethylidene)-2,3-dihydro-1H-indol-6-yl]prop-2-en-1-yl}-2,3-dihydropyridazine-4-carboxamide] | 21.4
2 | CN(C)Cc1ccc(-c2cc3c(Nc4ccc(CNC(=O)c5cncn(Cc6ccc(F)c(F)c6)c5=O)cc4)ncnc3[nH]2)cc1 [IV-26, 1-(3,4-difluorobenzyl)-N-{4-[(6-{4-[(dimethylamino)methyl]phenyl}-7H-pyrrolo[2,3-d]pyrimidin-4-yl)amino]benzyl}-6-oxo-1,6-dihydropyrimidine-5-carboxamide] | 20.9
3 | O=C(NC/C=C/c1ccc2ncncc2c1)c1cncn(Cc2ccc(F)c(F)c2)c1=O [IV-56, 1-(3,4-difluorobenzyl)-6-oxo-N-[(2E)-3-(quinazolin-6-yl)prop-2-en-1-yl]-1,6-dihydropyrimidine-5-carboxamide] | 18.8
4 | O=C1Nc2cc(/C=C/CNC(=O)c3cncn(Cc4ccc(F)c(F)c4)c3=O)ccc2/C1=C/c1ccc[nH]1 [I-1, 1-(3,4-difluorobenzyl)-6-oxo-N-{(2E)-3-[(3Z)-2-oxo-3-(1H-pyrrol-2-ylmethylidene)-2,3-dihydro-1H-indol-6-yl]prop-2-en-1-yl}-1,6-dihydropyrimidine-5-carboxamide] | 18.1
5 | Cc1c[nH]c(/C=C2\C(=O)Nc3cc(/C=C/CNC(=O)c4c(C)n(C)n(Cc5ccc(F)c(F)c5)c4=O)ccc32)n1 [I-42, 2-(3,4-difluorobenzyl)-1,5-dimethyl-N-[(2E)-3-{(3Z)-3-[(4-methyl-1H-imidazol-2-yl)methylidene]-2-oxo-2,3-dihydro-1H-indol-6-yl}prop-2-en-1-yl]-3-oxo-2,3-dihydro-1H-pyrazole-4-carboxamide] | 15.7
6 | O=C(NC/C=C/c1ccc2nc(Nc3ccccn3)ncc2c1)c1cncn(Cc2ccc(F)c(F)c2)c1=O | 18.4
7 | NCCOc1cc(C#CCNC(=O)c2cncn(Cc3ccc(F)c(F)c3)c2=O)cc2cnc(Nc3ccc(N4CCOCC4)cc3)nc12 | 18.3
8 | O=C(NCC#Cc1cc(OC2CCNCC2)c2nc(Nc3ccc(N4CCOCC4)cc3)ncc2c1)c1cncn(Cc2ccc(F)c(F)c2)c1=O | 9.4
9 | Cc1c(C(=O)NCC#Cc2ccc3nc(NC(C)C)ncc3c2)c(=O)n(Cc2ccc(F)c(F)c2)n1C | 24.4
10 | Cc1c(C(=O)NC/C=C/c2ccc3ncncc3c2)c(=O)n(Cc2ccc(F)c(F)c2)n1C [IV-57, 2-(3,4-difluorobenzyl)-1,5-dimethyl-3-oxo-N-[(2E)-3-(quinazolin-6-yl)prop-2-en-1-yl]-2,3-dihydro-1H-pyrazole-4-carboxamide] | 35.5
11 | CN(C)Cc1ccc(Nc2ncc3cc(/C=C/CNC(=O)c4cc(Cl)nn(Cc5ccc(F)c(F)c5)c4=O)ccc3n2)cc1 [IV-39, 6-chloro-2-(3,4-difluorobenzyl)-N-{(2E)-3-[2-({4-[(dimethylamino)methyl]phenyl}amino)quinazolin-6-yl]prop-2-en-1-yl}-3-oxo-2,3-dihydropyridazine-4-carboxamide] | 17.9
12 | Cc1c(C(=O)NC/C=C\c2ccc3c(-c4ccco4)n[nH]c3c2)c(=O)n(Cc2ccc(F)c(F)c2)n1C [II-6, 2-(3,4-difluorobenzyl)-N-{(2Z)-3-[3-(furan-2-yl)-1H-indazol-6-yl]prop-2-en-1-yl}-1,5-dimethyl-3-oxo-2,3-dihydro-1H-pyrazole-4-carboxamide] | 21.4
13 | CNc1ncc2cc(C#CCNC(=O)c3cncn(Cc4ccc(F)c(F)c4)c3=O)ccc2n1 [III-43, 1-(3,4-difluorobenzyl)-N-{3-[2-(methylamino)quinazolin-6-yl]prop-2-yn-1-yl}-6-oxo-1,6-dihydropyrimidine-5-carboxamide] | 20.3
